Assays:
[1] = biological target: Dual specificity protein kinase CLK4 (Homo sapiens, UniProt Q9HAZ1); experiment: Inhibition of recombinant human CLK4 (128 to end residues) using YRRAAVPPSPSLSR as substrate incubated 40 mins in presence of [gamma-33ATP] by radiometric scintillation counting analysis
[2] = biological target: Serine/threonine-protein kinase 35 (Homo sapiens, UniProt Q8TDR2); experiment: Inhibition of recombinant full length human CLIK1 at 10 uM using RSRSRSRSRSRS as substrate measured after 40 mins in presence of [gamma33P]ATP by radiometric scintillation counting analysis
[3] = biological target: MAP kinase-interacting serine/threonine-protein kinase 2 (Homo sapiens, UniProt Q9HBH9); experiment: Inhibition of recombinant full length human MNK2 using myelin basic protein as substrate incubated for 40 mins in presence of [gamma-33ATP by radiometric scintillation counting analysis
[4] = biological target: NUAK family SNF1-like kinase 2 (Homo sapiens, UniProt Q9H093); experiment: Inhibition of recombinant human full length NUAK2 using KKKVSRSGLYRSP as substrate measured after 40 mins in presence of [gamma33P]ATP by radiometric scintillation counting analysis
[5] = biological target: Mast/stem cell growth factor receptor Kit (Homo sapiens, UniProt P10721, V560G); experiment: Inhibition of recombinant human C-Kit V560G mutant (544 to end residues) using poly(Glu, Tyr) 4:1 as substrate incubated 40 mins in presence of [gamma-33ATP] by radiometric scintillation counting analysis
[6] = biological target: Fibroblast growth factor receptor 1 (Homo sapiens, UniProt P11362); experiment: Inhibition of recombinant human FGFR1 (456 to 765 residues) using KKKSPGEYVNIEF as substrate after 40 mins in presence of [gamma-33ATP] by radiometric scintillation counting analysis
[7] = biological target: Serine/threonine-protein kinase PAK 4 (Homo sapiens, UniProt O96013); experiment: Inhibition of recombinant human PAK4 (295 to end residues) using myelin basic protein as substrate measured after 40 mins in presence of [gamma33P]ATP by radiometric scintillation counting analysis
[8] = Inhibition of recombinant full length human PKBalpha S478G mutant using GRPRTSSFAEGKK as substrate incubated for 40 mins in presence of [gamma33P]ATP by radiometric scintillation counting analysis
[9] = biological target: Homeodomain-interacting protein kinase 2 (Homo sapiens, UniProt Q9H2X6); experiment: Inhibition of human recombinant HIPK2 I471N mutant (165 to 564 residues) using myelin basic protein as substrate after 40 mins by [gamma-33ATP] radiometric assay
Ephrin type-B receptor 3 = Ephrin type-B receptor 3 (Homo sapiens, UniProt P54753); experiment: Inhibition of recombinant human EphB3 (599 to 920 residues) using poly(Glu, Tyr) 4:1 as substrate after 40 mins in presence of [gamma-33ATP] by radiometric scintillation counting analysis
[10] = Inhibition of recombinant human TIE2 Q939H/Q940H/Y897S triple mutant (771 to end residues) using EFPIYDFLPAKKK as substrate incubated for 40 mins in presence of [gamma33P]ATP by radiometric scintillation counting analysis
[11] = biological target: Cyclin-dependent kinase-like 2 (Homo sapiens, UniProt Q92772); experiment: Inhibition of recombinant full length human CDKL2 in presence of 10 uM ATP by radiometric scintillation counting analysis
[12] = biological target: Serine/threonine-protein kinase ULK1 (Homo sapiens, UniProt O75385); experiment: Inhibition of recombinant human ULK1 (1 to 314 residues) using casein as substrate incubated for 40 mins in presence of [gamma33P]ATP by radiometric scintillation counting analysis
[13] = biological target: Bone morphogenetic protein receptor type-2 (Homo sapiens, UniProt Q13873); experiment: Inhibition of human recombinant BMPR2 (172 to 734 residues) using myelin basic protein as substrate incubated for 120 mins in presence of [gamma-33ATP] by radiometric scintillation counting analysis
[14] = biological target: Proto-oncogene tyrosine-protein kinase Src (Homo sapiens, UniProt P12931); experiment: Inhibition of recombinant human SRC (1 to 530 residues) using GGEEEEYFELVKK as substrate incubated for 40 mins in presence of [gamma33P]ATP by radiometric scintillation counting analysis
[15] = Inhibition of human MAPK2
[16] = biological target: Serine/threonine-protein kinase ULK2 (Homo sapiens, UniProt Q8IYT8); experiment: Inhibition of recombinant human ULK2 (1 to 306 residues) using casein as substrate incubated for 40 mins in presence of [gamma33P]ATP by radiometric scintillation counting analysis
[17] = biological target: Dual specificity tyrosine-phosphorylation-regulated kinase 1A (Homo sapiens, UniProt Q13627); experiment: Inhibition of recombinant full length human DYRK1A using RRRFRPASPLRGPP as substrate after 40 mins in presence of [gamma-33ATP] by radiometric scintillation counting analysis
[18] = biological target: Serine/threonine-protein kinase MRCK alpha (Homo sapiens, UniProt Q5VT25); experiment: Inhibition of recombinant human MRCKalpha (1 to 473 residues) using KKRNRTLTV as substrate incubated for 40 mins in presence of [gamma-33ATP by radiometric scintillation counting analysis
[19] = biological target: Glycogen synthase kinase-3 beta (Homo sapiens, UniProt P49841); experiment: Inhibition of human GSK-3beta H350L mutant (2 to end residues) using YRRAAVPPSPSLSR as substrate after 40 mins by [gamma-33ATP] radiometric assay
CDK18/Cyclin Y = CDK18/Cyclin Y (Homo sapiens, UniProt Q07002+Q8ND76, T166M); experiment: Inhibition of recombinant full length human cyclinY/CDK18 T166M mutant using YRRAAVPPSPSLS as substrate measured after 40 mins in presence of [gamma33P]ATP by radiometric scintillation counting analysis; format: protein-complex assay
[20] = biological target: Tyrosine-protein kinase CSK (Homo sapiens, UniProt P41240); experiment: Inhibition of recombinant full length human CSK using poly(Glu, Tyr) 4:1 as substrate incubated 40 mins in presence of [gamma-33ATP] by radiometric scintillation counting analysis
[21] = biological target: Testis-specific serine/threonine-protein kinase 2 (Homo sapiens, UniProt Q96PF2); experiment: Inhibition of recombinant full-length human TSSK2 using KKKVSRSGLYRSP as substrate incubated for 40 mins in presence of [gamma33P]ATP by radiometric scintillation counting analysis
[22] = biological target: Tyrosine-protein kinase Fer (Homo sapiens, UniProt P16591); experiment: Inhibition of recombinant human FER (541 to end residues) using KKKSPGEYVNIEF as substrate after 40 mins in presence of [gamma-33ATP] by radiometric scintillation counting analysis
[23] = biological target: Tyrosine-protein kinase TXK (Homo sapiens, UniProt P42681); experiment: Inhibition of recombinant human Txk (256 to end residues) using GEEPLYWSFPAKK as substrate incubated for 40 mins in presence of [gamma33P]ATP by radiometric scintillation counting analysis
[24] = biological target: Serine/threonine-protein kinase MAK (Homo sapiens, UniProt P20794); experiment: Inhibition of recombinant human MAK using RRRFRPASPLRGP as substrate after 120 mins in presence of [gamma-33ATP] by radiometric scintillation counting analysis

Measured: IC50

Serine/threonine-protein kinase ULK2, sequence (Q8IYT8 whole entry, the tested form may be a part): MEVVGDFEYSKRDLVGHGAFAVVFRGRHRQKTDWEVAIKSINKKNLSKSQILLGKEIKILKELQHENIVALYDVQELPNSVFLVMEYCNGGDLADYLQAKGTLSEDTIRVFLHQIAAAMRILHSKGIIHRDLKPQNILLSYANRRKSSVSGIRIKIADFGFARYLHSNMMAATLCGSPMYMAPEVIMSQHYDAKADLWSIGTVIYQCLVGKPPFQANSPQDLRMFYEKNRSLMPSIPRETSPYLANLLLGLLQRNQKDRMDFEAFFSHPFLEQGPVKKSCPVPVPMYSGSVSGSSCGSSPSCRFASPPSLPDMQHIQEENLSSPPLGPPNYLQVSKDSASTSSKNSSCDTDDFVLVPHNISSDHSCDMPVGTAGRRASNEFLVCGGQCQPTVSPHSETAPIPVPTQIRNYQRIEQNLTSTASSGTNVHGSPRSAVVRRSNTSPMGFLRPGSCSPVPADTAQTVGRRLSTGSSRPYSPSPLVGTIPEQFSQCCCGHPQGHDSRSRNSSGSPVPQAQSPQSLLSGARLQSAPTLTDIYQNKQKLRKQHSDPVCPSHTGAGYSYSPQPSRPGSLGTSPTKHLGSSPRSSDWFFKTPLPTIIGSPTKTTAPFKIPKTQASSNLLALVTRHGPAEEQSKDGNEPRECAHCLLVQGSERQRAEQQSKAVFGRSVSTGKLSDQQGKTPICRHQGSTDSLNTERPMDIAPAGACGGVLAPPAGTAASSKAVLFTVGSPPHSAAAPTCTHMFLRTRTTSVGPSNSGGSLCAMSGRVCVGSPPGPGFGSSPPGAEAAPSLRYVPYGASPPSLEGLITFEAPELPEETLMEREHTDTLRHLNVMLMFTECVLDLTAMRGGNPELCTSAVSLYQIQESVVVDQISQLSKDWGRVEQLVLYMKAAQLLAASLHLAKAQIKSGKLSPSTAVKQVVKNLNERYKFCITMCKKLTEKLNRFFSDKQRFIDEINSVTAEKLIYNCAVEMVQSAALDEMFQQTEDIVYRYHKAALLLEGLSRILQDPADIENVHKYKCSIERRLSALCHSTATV
Glycogen synthase kinase-3 beta, sequence (P49841 whole entry): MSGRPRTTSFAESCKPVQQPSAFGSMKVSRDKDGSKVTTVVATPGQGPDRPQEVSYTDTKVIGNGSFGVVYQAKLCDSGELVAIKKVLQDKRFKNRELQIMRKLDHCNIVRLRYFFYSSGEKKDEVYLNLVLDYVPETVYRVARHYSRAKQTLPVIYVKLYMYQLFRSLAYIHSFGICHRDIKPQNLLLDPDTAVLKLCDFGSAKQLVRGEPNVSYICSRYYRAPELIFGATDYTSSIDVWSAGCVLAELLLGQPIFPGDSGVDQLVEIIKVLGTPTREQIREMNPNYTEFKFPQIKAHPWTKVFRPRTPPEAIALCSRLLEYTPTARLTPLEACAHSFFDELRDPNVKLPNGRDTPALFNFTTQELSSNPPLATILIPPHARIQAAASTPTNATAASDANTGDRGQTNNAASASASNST
Serine/threonine-protein kinase MRCK alpha, sequence (Q5VT25 whole entry, the tested form may be a part): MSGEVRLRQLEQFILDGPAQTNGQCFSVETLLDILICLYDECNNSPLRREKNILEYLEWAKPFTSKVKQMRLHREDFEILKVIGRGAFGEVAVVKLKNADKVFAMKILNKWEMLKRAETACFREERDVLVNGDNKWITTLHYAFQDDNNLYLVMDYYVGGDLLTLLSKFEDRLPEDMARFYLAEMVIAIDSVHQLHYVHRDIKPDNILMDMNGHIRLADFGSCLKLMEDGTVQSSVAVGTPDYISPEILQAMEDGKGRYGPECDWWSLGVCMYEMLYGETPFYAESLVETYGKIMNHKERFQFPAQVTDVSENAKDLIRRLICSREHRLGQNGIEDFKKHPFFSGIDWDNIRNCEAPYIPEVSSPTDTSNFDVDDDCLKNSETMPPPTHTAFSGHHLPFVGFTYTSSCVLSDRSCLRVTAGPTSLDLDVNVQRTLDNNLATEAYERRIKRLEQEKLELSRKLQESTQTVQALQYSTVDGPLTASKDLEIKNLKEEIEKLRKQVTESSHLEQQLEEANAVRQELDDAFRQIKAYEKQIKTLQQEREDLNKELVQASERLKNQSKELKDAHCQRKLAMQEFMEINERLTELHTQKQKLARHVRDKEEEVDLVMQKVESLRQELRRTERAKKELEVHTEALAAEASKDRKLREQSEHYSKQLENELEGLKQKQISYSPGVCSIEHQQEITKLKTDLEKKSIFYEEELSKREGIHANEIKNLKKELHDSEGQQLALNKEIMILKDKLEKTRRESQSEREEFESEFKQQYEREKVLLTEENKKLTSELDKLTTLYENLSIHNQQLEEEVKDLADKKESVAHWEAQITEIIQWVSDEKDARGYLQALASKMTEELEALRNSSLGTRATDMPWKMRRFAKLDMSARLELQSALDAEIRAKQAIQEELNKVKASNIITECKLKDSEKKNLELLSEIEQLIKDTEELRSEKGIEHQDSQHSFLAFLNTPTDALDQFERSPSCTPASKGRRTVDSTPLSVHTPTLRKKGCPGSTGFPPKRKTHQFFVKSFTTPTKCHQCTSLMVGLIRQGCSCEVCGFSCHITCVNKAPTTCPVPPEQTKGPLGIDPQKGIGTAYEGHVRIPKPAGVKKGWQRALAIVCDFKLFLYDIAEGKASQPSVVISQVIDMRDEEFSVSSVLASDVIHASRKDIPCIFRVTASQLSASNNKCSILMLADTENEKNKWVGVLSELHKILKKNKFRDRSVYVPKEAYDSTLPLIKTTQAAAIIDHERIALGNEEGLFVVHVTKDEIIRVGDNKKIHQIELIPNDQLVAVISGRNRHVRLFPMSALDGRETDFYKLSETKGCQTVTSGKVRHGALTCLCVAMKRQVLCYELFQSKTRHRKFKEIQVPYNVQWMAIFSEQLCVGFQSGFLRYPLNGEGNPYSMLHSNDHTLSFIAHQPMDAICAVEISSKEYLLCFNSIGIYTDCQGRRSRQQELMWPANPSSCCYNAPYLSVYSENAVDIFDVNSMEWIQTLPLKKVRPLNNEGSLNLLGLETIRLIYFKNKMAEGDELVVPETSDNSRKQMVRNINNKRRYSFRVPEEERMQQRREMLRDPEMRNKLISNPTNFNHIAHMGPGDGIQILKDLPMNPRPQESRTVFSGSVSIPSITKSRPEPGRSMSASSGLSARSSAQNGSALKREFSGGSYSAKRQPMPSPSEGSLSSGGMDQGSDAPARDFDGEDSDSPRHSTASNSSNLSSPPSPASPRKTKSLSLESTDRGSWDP
MAP kinase-interacting serine/threonine-protein kinase 2, sequence (Q9HBH9 whole entry): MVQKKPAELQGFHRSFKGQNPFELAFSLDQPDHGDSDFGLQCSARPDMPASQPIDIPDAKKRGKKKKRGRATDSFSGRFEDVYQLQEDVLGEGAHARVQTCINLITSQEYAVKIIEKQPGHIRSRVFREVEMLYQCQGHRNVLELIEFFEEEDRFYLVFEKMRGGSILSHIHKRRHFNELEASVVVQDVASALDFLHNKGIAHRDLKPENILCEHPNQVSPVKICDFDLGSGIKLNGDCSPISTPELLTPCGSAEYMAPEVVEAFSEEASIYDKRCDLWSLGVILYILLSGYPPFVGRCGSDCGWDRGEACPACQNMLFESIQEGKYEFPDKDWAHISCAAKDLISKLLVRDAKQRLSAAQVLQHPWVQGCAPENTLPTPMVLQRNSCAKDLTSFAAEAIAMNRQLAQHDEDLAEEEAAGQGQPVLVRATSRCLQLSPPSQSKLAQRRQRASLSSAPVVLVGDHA
Cyclin-dependent kinase-like 2, sequence (Q92772 whole entry, the tested form may be a part): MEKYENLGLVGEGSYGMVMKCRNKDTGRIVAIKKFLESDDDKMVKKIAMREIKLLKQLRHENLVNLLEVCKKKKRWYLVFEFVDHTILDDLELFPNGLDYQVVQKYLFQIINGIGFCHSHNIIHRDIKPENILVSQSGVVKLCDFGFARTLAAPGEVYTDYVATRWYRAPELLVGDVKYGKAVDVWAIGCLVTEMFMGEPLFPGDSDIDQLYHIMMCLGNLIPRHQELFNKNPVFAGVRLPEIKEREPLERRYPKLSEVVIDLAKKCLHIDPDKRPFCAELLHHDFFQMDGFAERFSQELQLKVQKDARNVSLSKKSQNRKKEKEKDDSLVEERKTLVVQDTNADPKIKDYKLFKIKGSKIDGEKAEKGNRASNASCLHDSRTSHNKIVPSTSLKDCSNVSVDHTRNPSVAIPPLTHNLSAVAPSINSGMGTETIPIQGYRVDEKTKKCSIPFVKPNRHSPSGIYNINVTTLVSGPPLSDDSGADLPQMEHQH
NUAK family SNF1-like kinase 2, sequence (Q9H093 whole entry): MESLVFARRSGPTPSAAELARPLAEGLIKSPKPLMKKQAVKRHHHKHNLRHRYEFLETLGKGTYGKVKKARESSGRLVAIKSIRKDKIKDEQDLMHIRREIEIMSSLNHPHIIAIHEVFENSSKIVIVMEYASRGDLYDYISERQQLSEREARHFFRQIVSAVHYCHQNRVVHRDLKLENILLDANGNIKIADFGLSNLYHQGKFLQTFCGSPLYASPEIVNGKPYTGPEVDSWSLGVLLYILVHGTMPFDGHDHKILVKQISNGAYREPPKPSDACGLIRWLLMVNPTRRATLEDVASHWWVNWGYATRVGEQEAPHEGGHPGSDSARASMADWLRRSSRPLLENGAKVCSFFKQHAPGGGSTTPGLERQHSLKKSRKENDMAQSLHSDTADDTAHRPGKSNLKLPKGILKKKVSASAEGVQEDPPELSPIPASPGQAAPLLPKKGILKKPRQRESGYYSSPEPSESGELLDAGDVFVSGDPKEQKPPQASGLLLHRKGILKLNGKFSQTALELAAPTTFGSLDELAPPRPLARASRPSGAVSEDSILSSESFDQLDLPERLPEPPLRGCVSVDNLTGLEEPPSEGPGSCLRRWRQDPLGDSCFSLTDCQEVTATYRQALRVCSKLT

CN(C)c1ccc(C(=O)Nc2cccc(NC(=O)COc3ccc4c(=O)ccoc4c3)c2)cc1
> 10 µM: [1] | [2] | [3] | [4] | [5] | [6] | [7] | [8] | [9] | Ephrin type-B receptor 3 | [10] | [11] | [12] | [13] | [14] | [15] | [16] | [17] | [18] | [19] | CDK18/Cyclin Y | [20] | [21] | [22] | [23] | [24]

Source: ChEMBL document CHEMBL4376834, “Discovery of 4H-Chromen-4-one Derivatives as a New Class of Selective Rho Kinase (ROCK) Inhibitors, which Showed Potent Activity in ex Vivo Diabetic Retinopathy Models” (J Med Chem, 2019)
